Among the data in patent publication US20260226048A1, “MULTI-CYCLIC IRAK AND FLT3 INHIBITING COMPOUNDS AND USES THEREOF” (CHILDREN'S HOSPITAL MEDICAL CENTER, priority 2023, published 2026) are IC50 values, retold here.

Structures are written as SMILES. Bounds are passed on as bounds.

Assay [1] addresses T1, FLT3 (Homo sapiens, UniProt P36888).
T1 sequence (P36888 27-993): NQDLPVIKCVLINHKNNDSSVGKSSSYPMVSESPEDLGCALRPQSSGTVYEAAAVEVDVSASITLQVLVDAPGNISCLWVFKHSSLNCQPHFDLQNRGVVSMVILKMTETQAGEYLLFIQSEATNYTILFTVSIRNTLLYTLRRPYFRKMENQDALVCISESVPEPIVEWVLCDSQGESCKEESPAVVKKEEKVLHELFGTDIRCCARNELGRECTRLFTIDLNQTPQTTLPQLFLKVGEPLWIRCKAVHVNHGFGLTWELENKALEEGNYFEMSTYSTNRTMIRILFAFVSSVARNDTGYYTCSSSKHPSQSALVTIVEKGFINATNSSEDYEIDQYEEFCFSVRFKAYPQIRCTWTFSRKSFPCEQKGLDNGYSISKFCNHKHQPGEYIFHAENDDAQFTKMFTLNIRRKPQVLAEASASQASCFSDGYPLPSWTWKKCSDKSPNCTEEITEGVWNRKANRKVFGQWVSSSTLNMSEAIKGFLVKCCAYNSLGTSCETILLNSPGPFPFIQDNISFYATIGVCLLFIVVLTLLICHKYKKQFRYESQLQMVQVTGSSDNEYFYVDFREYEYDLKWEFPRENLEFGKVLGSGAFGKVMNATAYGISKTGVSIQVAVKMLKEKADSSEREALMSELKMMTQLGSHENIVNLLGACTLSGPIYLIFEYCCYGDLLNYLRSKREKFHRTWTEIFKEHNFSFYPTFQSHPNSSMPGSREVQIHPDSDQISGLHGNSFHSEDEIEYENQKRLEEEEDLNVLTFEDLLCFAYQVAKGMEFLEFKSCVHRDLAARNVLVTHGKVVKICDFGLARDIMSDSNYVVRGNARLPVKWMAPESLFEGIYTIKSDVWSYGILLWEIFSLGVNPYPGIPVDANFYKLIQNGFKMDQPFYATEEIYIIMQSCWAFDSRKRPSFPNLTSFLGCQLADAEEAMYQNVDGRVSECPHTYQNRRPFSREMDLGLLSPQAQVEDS
Nature of the assay: RBC HotSpot Kinase Assay, FLT3. Also on record: purchased Reaction Biology (RBC HotSpot). The settings on record: isolated kinase enzyme, 33P-ATP, P81 filter-binding. In kind it is biochemical. Summed up:
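Reactions ran in 20 mM Hepes (pH 7.5) containing 10 mM MgCl2, 1 mM EGTA, 0.1 mM Na3VO4, 2 mM DTT, 0.02 mg/ml BSA, 0.01% Brij35 and 1% DMSO, plus required cofactors. Functional activity readout on the expressible enzyme form, sometimes C-terminally truncated or lacking receptor regulatory regions.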

Assay [2] concerns the target T1, FLT3. Put plainly: Reaction Biology NanoBRET target engagement assay in HEK-293 cells, FLT3. To be noted: live HEK-293 cells transfected with Kinase-NanoLuc fusion, 1 hour. The assay is classed as cell-based. An excerpt: The NanoBRET assay measures kinase engagement in real time in the context of the intact cell. Unlike the previously described biochemical kinase assay methodology in Example 33, the NanoBRET assay measures the binding and activity characteristics under equilibrium conditions using full-length kinases in the presence of cellular concentrations of ATP in live, uncompromised cells. As such, the assay provides a more relevant assessment of kinase potency and selectivity that would be expected to be observed in the native cellular environment, where potency is often considerably lower than that observed in the isolated biochemical assays (Vasta, J. D. et al., (2018) Cell Chem. Biol. 25, 206-214). The assay uses a Kinase-NanoLuc® fusion vector expressing a kinase protein to which a luciferase tag has been added, a cell-permeant fluorescent NanoBRET™ tracer, a NanoLuc® substrate, and an extracellular NanoLuc® inhibitor. Upon expression of the luciferase-tagged kinase, cells will produce a strong BRET signal only in the presence of the NanoBRET™ tracer. The extracellular NanoLuc® inhibitor ensures that the BRET signal observed emanates only from live cells. Because the BRET signal has tight distance constraints, addition of the test compound will decrease the BRET signal if the compound competes with the NanoBRET™ tracer for binding to the kinase domain. Under the appropriate tracer conditions established by the manufacturer, quantitative intracellular affinity and relative potency can then be determined using Mass Action model equations.
HEK-293 cells were purchased from ATCC. FuGENEHD Transfection Reagent, Kinase-NanoLucfusion plasmids, Transfection Carrier DNA, NanoBRETTracers and dilution buffer, NanoBRETNano-Glo Substrate, Extracellular NanoLucInhibitor were obtained from Promega.
Assays were conducted following Promega assay protocol with some modifications. HEK-293 Cells were transiently transfected with Kinase-NanoLucFusion Vector DNA by FuGENEHD Transfection Reagent. Testing compounds were delivered into 384 well assay plate by Echo 550 (LabcyteInc, Sunnyvale, CA). Transfected cells were harvested and mixed with NanoBRETTracer Reagent and dispensed into 384 well plates and incubated at 37° C. in 5% C02 cell culture incubator for 1 hour. The NanoBRETNano-Glo Substrate plus Extracellular NanoLucInhibitor Solution were added into the wells of the assay plate and incubated for 2-3 minutes at room temperature. The donor emission wavelength (460 nm) and acceptor emission wavelength (600 nm) were measured in the EnVisionplate reader. The BRET Ratios were calculated. BRET Ratio=[(Acceptor sample÷Donor sample)−(Acceptor no-tracer control÷Donor no-tracer control)]. The IC50 values of compounds were calculated with Prism GraphPad program.
• 1). Cultivate HEK-293 cells (70-80% confluence) appropriately prior to assay. Trypsinize and collect HEK-293 cells. • 2). Prepare lipid: DNA complexes as follows: • a. Prepare a 10 μg/ml solution of DNA in Opti-MEM without serum that consists of the following ratios of carrier DNA and DNA encoding NanoLuc® fusion. 9.0 μg/mL of Transfection Carrier DNA, 1.0 μg/mL of NanoLuc fusion vector DNA and 1 mL of Opti-MEM without phenol red. Mix thoroughly. • b. Add 30 μl of FuGENE HD Transfection Reagent into each milliliter of DNA mixture to form lipid: DNA complex. • c. Mix by inversion 10 times. • d. Incubate at ambient temperature for 20 minutes to allow complexes to form. • 3). In a sterile, conical tube, mix 1 part of lipid:DNA complex with 20 parts of HEK-293 cells in suspension. Mix gently by inversion 5 times. • 4). Dispense cells+lipid:DNA complex into a sterile tissue culture dish and incubate for 22-24 hours.
Each test compound is delivered from the compound source plate to the wells of 384-well white NBS plate by Echo 550.
3. Preparation of Cells with NanoBRET™ Tracer Reagent • 1). […]

For the compound `CC(O)(c1ccc2ncc(-c3ccnc(N[C@@H]4CCCNC4)n3)n2c1)C(F)(F)F` (single isomer, unassigned) [Compound 22a], the IC50 in assay [1] stood at 0.6 nM; in assay [2] it was 38 nM.

`CC(O)(c1ccc2ncc(-c3ccnc(N[C@@H]4CCCNC4)n3)n2c1)C(F)(F)F` (single isomer, unassigned) [Compound 23a]: the concentration for half-maximal inhibition (IC50) in assay [1] was below 0.5 nM; in assay [2], 3 nM.

`CC(O)(c1ccc2ncc(-c3ccnc(N[C@H]4CNCC[C@@H]4F)n3)n2c1)C(F)(F)F` (single isomer, unassigned) [Compound 25a]: the values for the IC50 in assay [1] and in assay [2] were below 0.5 nM and 40 nM, respectively.

On to `CC(O)(c1ccc2ncc(-c3cncc(N[C@@H]4CCCNC4)n3)n2c1)C(F)(F)F` (single isomer, unassigned) [Compound 28a], for which the results for the half-inhibitory concentration (IC50) in assay [1] and in assay [2] were 2 nM and 2960 nM, respectively.

For the compound `CC(O)(c1ccc2ncc(-c3cncc(N[C@H]4CNCC[C@@H]4F)n3)n2c1)C(F)(F)F` (single isomer, unassigned) [Compound 31a], the IC50 in assay [1] stood at 1 nM; in assay [2], 1810 nM.

Consider `COc1cc2ncc(-c3nc(N[C@H]4CNCC[C@@H]4F)ncc3F)n2nc1C1CC1` [Compound 1a, 4-(6-cyclopropyl-7-methoxyimidazo[1,2-b]pyridazin-3-yl)-5-fluoro-N-((3S,4S)-4-fluoropiperidin-3-yl)pyrimidin-2-amine], for which the IC50 amounted to 0.5 nM in assay [1] and 1 nM in assay [2].

`FC(F)COc1cc2ncc(-c3ccnc(N[C@H]4CNCC[C@@H]4F)n3)n2nc1C1CC1` [Compound 4a, 4-(6-cyclopropyl-7-(2,2-difluoroethoxy)imidazo[1,2-b]pyridazin-3-yl)-N-((3 S,4S)-4-fluoropiperidin-3-yl)pyrimidin-2-amine]: the IC50 is below 0.5 nM in assay [1] and 4 nM in assay [2].

As to `F[C@H]1CCNC[C@@H]1Nc1nccc(-c2cnc3cc(OC4CC4)c(C4CC4)nn23)n1` [Compound 12a, 4-(7-cyclopropoxy-6-cyclopropylimidazo[1,2-b]pyridazin-3-yl)-N-((3S,4S)-4-fluoropiperidin-3-yl)pyrimidin-2-amine], the IC50 in assay [1] and in assay [2] was below 0.5 nM each time.

On to `COc1cc2ncc(-c3nc(N[C@H]4CNCC[C@@H]4F)ncc3F)n2nc1C(C)(C)O` [Compound 45a, 2-(3-(5-fluoro-2-(((3S,4S)-4-fluoropiperidin-3-yl)amino)pyrimidin-4-yl)-7-methoxyimidazo[1,2-b]pyridazin-6-yl)propan-2-ol], for which the results for the IC50 in assay [1] and in assay [2] were below 0.5 nM and 44 nM, respectively.

`CC(C)(O)c1ccc2ncc(-c3nc(N[C@H]4CNCC[C@@H]4F)ncc3F)n2c1` [Compound 46a, 2-(3-(5-fluoro-2-(((3S,4S)-4-fluoropiperidin-3-yl)amino)pyrimidin-4-yl)imidazo[1,2-a]pyridin-6-yl)propan-2-ol]: the values for the half-maximal inhibitory concentration (IC50) in assay [1] and in assay [2] were below 0.7 nM and 102 nM, respectively.

Regarding `CC(C)(O)c1ccc2ncc(-c3nc(N[C@@H]4CCCNC4)ncc3F)n2c1` [Compound 48a, (R)-2-(3-(5-fluoro-2-(piperidin-3-ylamino)pyrimidin-4-yl)imidazo[1,2-a]pyridin-6-yl)propan-2-ol], the half-inhibitory concentration (IC50) in assay [1] amounted to 1 nM; in assay [2], 141 nM.

Regarding `COc1cc2ncc(-c3nc(N[C@H]4CNCC[C@@H]4F)ncc3F)n2nc1C1CC(F)(F)C1` [Compound 49a, 4-(6-(3,3-difluorocyclobutyl)-7-methoxyimidazo[1,2-b]pyridazin-3-yl)-5-fluoro-N-((3S,4S)-4-fluoropiperidin-3-yl)pyrimidin-2-amine], the IC50 in assay [1] and in assay [2] was below 0.5 nM each time.

In assay [1], `COc1cc2ncc(-c3nc(N[C@@H]4CCCNC4)ncc3F)n2nc1C1CC2(CCC2)C1` [Compound 59a, (R)-5-fluoro-4-(7-methoxy-6-(spiro[3.3]heptan-2-yl)imidazo[1,2-b]pyridazin-3-yl)-N-(piperidin-3-yl)pyrimidin-2-amine] showed a half-inhibitory concentration (IC50) below 0.5 nM.

In turn, `COc1cc2ncc(-c3nc(N[C@H]4CNCC[C@@H]4F)ncc3F)n2nc1C1CC2(CCC2)C1` [Compound 60a, 5-fluoro-N-((3S,4S)-4-fluoropiperidin-3-yl)-4-(7-methoxy-6-(spiro[3.3]heptan-2-yl)imidazo[1,2-b]pyridazin-3-yl)pyrimidin-2-amine] gave an IC50 in assay [1] below 0.5 nM.

Turning to `COc1cc2ncc(-c3ccnc(N[C@H]4CNCC[C@@H]4F)n3)n2nc1C1CCC1` [Compound 79a, 4-(6-cyclobutyl-7-methoxyimidazo[1,2-b]pyridazin-3-yl)-N-((3S,4S)-4-fluoropiperidin-3-yl)pyrimidin-2-amine], the IC50 in assay [1] and in assay [2] was below 0.5 nM in each case.

`COc1cc2ncc(-c3nc(N[C@H]4CNCC[C@@H]4F)ncc3F)n2nc1C1COC1` [Compound 92a, 5-fluoro-N-((3S,4S)-4-fluoropiperidin-3-yl)-4-(7-methoxy-6-(oxetan-3-yl)imidazo[1,2-b]pyridazin-3-yl)pyrimidin-2-amine]: the figures for the concentration for half-maximal inhibition (IC50) in assay [1] and in assay [2] were below 0.5 nM and 4 nM, respectively.

Consider `CC(C)(O)c1cn2c(-c3nc(N[C@H]4CNCC[C@@H]4F)ncc3F)cnc2cn1` [Compound 100a, 2-(3-(5-fluoro-2-(((3S,4S)-4-fluoropiperidin-3-yl)amino)pyrimidin-4-yl)imidazo[1,2-a]pyrazin-6-yl)propan-2-ol], for which the half-maximal inhibitory concentration (IC50) was 1 nM in assay [1] and 4250 nM in assay [2].

On to `COc1cc2ncc(-c3nc(N[C@H]4CNC[C@@H]4F)ncc3F)n2nc1N1CCCS1(=O)=O` [Compound 111a, 2-(3-(5-fluoro-2-(((3S,4S)-4-fluoropyrrolidin-3-yl)amino)pyrimidin-4-yl)-7-methoxyimidazo[1,2-b]pyridazin-6-yl)isothiazolidine 1,1-dioxide], for which the IC50 in assay [1] is below 0.5 nM; in assay [2], 77 nM.

Broadly, the IC50 is the point on the concentration scale where inhibition reaches its midpoint. Low readings indicate greater potency, high ones weaker potency.
